# Entries after “also recorded” stand apart in the source; their conditions may differ.
# Assays:
# [1] = tested on: purified β-glucosidase from Candida peltata Y-21603; test: Substrate specificity and kinetic analysis (Lineweaver-Burk); type: biochemical; settings: for Vmax / Km: pH 5.0 and 50° C.; for Km: read-out: apparent Km; for activity on substrate (relative rate of hydrolysis): disaccharides; for relative rate of hydrolysis, of that of pNPβG: aryl-glycosides
# From the text: Substrate specificity and kinetic analysis. Relative rates of hydrolysis of various substrates by the purified β-glucosidase were studied. The enzyme could hydrolyze pNPβG and cellobiose effectively. Salicin was hydrolyzed at 34% of that of cellobiose. The purified enzyme had very little (<5%) or no activity on lactose, maltose, sucrose and trehalose. It also had no or very little activity on p-nitrophenyl-α-D-glucoside, p-nitrophenyl-β-D-xyloside, p-nitrophenyl-β-D-cellobioside, p-nitrophenyl-α-L-arabinofuranoside, and p-nitrophenyl-β-D-glucuronide (<5%). p-Nitrophenyl-β-D-galactoside was hydrolyzed at 6% of that of pNPβG. The reaction kinetics of the purified enzyme were determined from Lineweaver-Burk plots using pNPβG and cellooligosaccharides (cellobiose to cellohexaose) as substrates under optimal conditions (pH 5.0 and 50° C.).
# [2] = tested on: purified β-glucosidase from Candida peltata Y-21603; test: Inhibition by glucose, cellobiose and other sugars; inhibitors and activators (pNPβG hydrolysis assay); type: biochemical
# Candida peltata Y-21603 = test: Growth and β-glucosidase production on various carbon sources; type: cell-based; settings: 28° C., 4 days
# Procedure: Yeast strain, medium and culture conditions. The yeast strain (C. peltata NRRL Y-21603, also available as NRRL Y-6888) used in this study was obtained from the ARS culture collection, NCAUR, Peoria, Ill. The medium ([…] et al., 1982, Biotechnol. […] Solution A was a trace mineral solution having the following ingredients (per L): 1.1 g CaO, 0.4 g ZnO, 5.4 g FeCl3 ·6H2 O, 0.25 g CuSO4.5H2 O, 0.24 g CoCl2.6H2 O, 0.06 g H3 BO3 and 13 ml concentrated HCl. Solution B (per L) was composed of 10.1 g MgO and 45 ml concentrated HCl. Solution C (per L) contained 64 g urea, 12 g KH2 PO4, and 1.8 g Na2 HPO4. Substrates were sterilized separately. […] After 4 days, the cells were removed from the culture broth by centrifugation (18,000×g, 20 min). The resulting supernatant solution was used as the crude enzyme preparation. […] Analytical methods. […] Glucose was a good growth substrate for production of β-glucosidase.
# [3] = tested on: purified β-glucosidase from Candida peltata Y-21603; test: Inhibition by glucose, cellobiose and other sugars; inhibitors and activators (pNPβG hydrolysis assay); type: biochemical; remark: listed apart in the source
# Procedure: FIG. 4. […] Reaction time was 15 min at pH 5.0 and 50° C. Enzyme used, 39 mU/ml. pNPβG used: .smallcircle., 0.4 mM; .circle-solid., 0.8 mM; .tangle-solidup., 1.2 mM; Δ, 1.6 mM; .quadrature., 2.0 mM; .box-solid., 2.4 mM.
# After incubation at 50° C. for 30 min, the reaction was stopped by adding ice-cold 0.5M Na2 CO3 (1 ml) and the color developed as a result of p-nitrophenol (pNP) liberation was measured at 405 nm.
# Inhibition by glucose cellobiose and other sugars. The study of inhibition by glucose was performed with pNPβG as substrate.
# Inhibitors and activators.
compound,measurement,setting,value
"OC[C@H]1O[C@@H](O[C@H]2[C@H](O)[C@@H](O)C(O)O[C@@H]2CO)[C@H](O)[C@@H](O)[C@@H]1O (stereo partly drawn) [Cellobiose, cellobiose]",Vmax,[1],75 μmol.min^-1.mg^-1 protein
same,Km,[1],66 mM
same,substrate inhibition,[2]; 15% cellobiose,no inhibition; also recorded: not observed at all; also recorded: not inhibited at all
same,Growth (A660),Candida peltata Y-21603; carbon source 1% w/v,8.7
CCO [ethanol],increase of pNPβG hydrolysis (initial activity),"[3]; 0.75% (v/v) ethanol, pH 5.0, 50° C., 30 min reaction",11%
"OC[C@H]1O[C@@](CO)(O[C@H]2O[C@H](CO)[C@@H](O)[C@H](O)[C@H]2O)[C@@H](O)[C@@H]1O [Sucrose, sucrose]",activity on substrate (relative rate of hydrolysis),[1]; purified enzyme,< 5%
same,inhibition of β-glucosidase activity,[3]; sugar at 29 mM,did not inhibit
same,Growth (A660),Candida peltata Y-21603; carbon source 1% w/v,9.0
"OC[C@H]1OC(O)[C@H](O)[C@@H](O)[C@@H]1O (stereo partly drawn) [Glucose, glucose]",Growth (A660),Candida peltata Y-21603; carbon source 1% w/v,10.7
same,Growth (A660),Candida peltata Y-21603; carbon source 2% w/v,13.7
same,Growth (A660),Candida peltata Y-21603; carbon source 4% w/v,13.3
same,Growth (A660),Candida peltata Y-21603; carbon source 8% w/v,9.7
same,Growth (A660),Candida peltata Y-21603; carbon source 12% w/v,7.9
same,Growth (A660),Candida peltata Y-21603; carbon source 20% w/v,7.3
"O=[N+]([O-])c1ccc(O[C@@H]2O[C@H](CO)[C@@H](O)[C@H](O)[C@H]2O)cc1 [pNPβG, p-nitrophenyl β-D-glucoside]",Vmax,[1],221 μmol.min^-1.mg^-1 protein
same,Km,[1],2.3 mM
same,substrate inhibition,[2]; 40 mM pNPβG,not observed at all; also recorded: not inhibited at all
O=[N+]([O-])c1ccc(O[C@@H]2O[C@H](CO)[C@H](O)[C@H](O)[C@H]2O)cc1 [p-Nitrophenyl-β-D-galactoside],"relative rate of hydrolysis, of that of pNPβG",[1]; purified enzyme,6%
"O=C(O)c1cc[c]([Hg][Cl])cc1 [pCMB, p-chloromercuribenzoic acid]",effect on enzyme activity,[3]; 0.2 mM,not affected; also recorded: unaffected
"OC[C@H]1O[C@H](O[C@H]2[C@H](O)[C@@H](O)[C@H](O)O[C@@H]2CO)[C@H](O)[C@@H](O)[C@@H]1O [Maltose, maltose]",activity on substrate (relative rate of hydrolysis),[1]; purified enzyme,< 5%
same,Growth (A660),Candida peltata Y-21603; carbon source 1% w/v,9.3
[Co+2] [Co^2+],dependence of enzyme activity on metal ion,[3]; 0.5 mM,not dependent
O=C(O)[C@H]1O[C@@H](Oc2ccc([N+](=O)[O-])cc2)[C@H](O)[C@@H](O)[C@@H]1O [p-nitrophenyl-β-D-glucuronide],"relative rate of hydrolysis, of that of pNPβG",[1]; purified enzyme,< 5%
"OC1OC[C@@H](O)[C@H](O)[C@H]1O (stereo partly drawn) [Xylose, xylose]",inhibition of β-glucosidase activity,[3]; sugar at 56 mM,did not inhibit
same,Growth (A660),Candida peltata Y-21603; carbon source 1% w/v,11.3
O=C(CO)[C@@H](O)[C@H](O)[C@H](O)CO [fructose],inhibition of β-glucosidase activity,[3]; sugar at 56 mM,did not inhibit
"O[C@H](CS)[C@H](O)CS (racemic) [DTT, dithiothreitol]",effect on enzyme activity,[3]; 10 mM,not affected
O=[N+]([O-])c1ccc(O[C@@H]2O[C@H](CO)[C@@H](O[C@@H]3O[C@H](CO)[C@@H](O)[C@H](O)[C@H]3O)[C@H](O)[C@H]2O)cc1 [p-nitrophenyl-β-D-cellobioside],"relative rate of hydrolysis, of that of pNPβG",[1]; purified enzyme,< 5%
O=[N+]([O-])c1ccc(O[C@@H]2O[C@@H](CO)[C@H](O)[C@H]2O)cc1 [p-nitrophenyl-α-L-arabinofuranoside],"relative rate of hydrolysis, of that of pNPβG",[1]; purified enzyme,< 5%
O=[N+]([O-])c1ccc(O[C@H]2O[C@H](CO)[C@@H](O)[C@H](O)[C@H]2O)cc1 [p-nitrophenyl-α-D-glucoside],"relative rate of hydrolysis, of that of pNPβG",[1]; purified enzyme,< 5%
OC[C@H]1O[C@H](O[C@H]2O[C@H](CO)[C@@H](O)[C@H](O)[C@H]2O)[C@H](O)[C@@H](O)[C@@H]1O [trehalose],activity on substrate (relative rate of hydrolysis),[1]; purified enzyme,< 5%
OC[C@H]1O[C@@H](O[C@H]2[C@H](O)[C@@H](O)[C@H](O[C@H]3[C@H](O)[C@@H](O)C(O)O[C@@H]3CO)O[C@@H]2CO)[C@H](O)[C@@H](O)[C@@H]1O (stereo partly drawn) [cellotriose],Vmax,[1],32 μmol.min^-1.mg^-1 protein
same,Km,[1],39 mM
"OC[C@H]1O[C@@H](O[C@H]2[C@H](O)[C@@H](O)C(O)O[C@@H]2CO)[C@H](O)[C@@H](O)[C@H]1O (stereo partly drawn) [Lactose, lactose]",activity on substrate (relative rate of hydrolysis),[1]; purified enzyme,< 5%
same,inhibition of β-glucosidase activity,[3]; sugar at 29 mM,did not inhibit
same,Growth (A660),Candida peltata Y-21603; carbon source 1% w/v,2.5
[Ca+2] [Ca^2+],dependence of enzyme activity on metal ion,[3]; 5 mM,not dependent
OC[C@H]1O[C@@H](O[C@H]2[C@H](O)[C@@H](O)[C@H](O[C@H]3[C@H](O)[C@@H](O)[C@H](O[C@H]4[C@H](O)[C@@H](O)[C@H](O[C@H]5[C@H](O)[C@@H](O)C(O)O[C@@H]5CO)O[C@@H]4CO)O[C@@H]3CO)O[C@@H]2CO)[C@H](O)[C@@H](O)[C@@H]1O (stereo partly drawn) [cellopentaose],Vmax,[1],8 μmol.min^-1.mg^-1 protein
same,Km,[1],21 mM
OCc1ccccc1O[C@@H]1O[C@H](CO)[C@@H](O)[C@H](O)[C@H]1O [Salicin],"relative rate of hydrolysis, of that of cellobiose",[1]; purified enzyme,34%
OC[C@H]1O[C@@H](O[C@H]2[C@H](O)[C@@H](O)[C@H](O[C@H]3[C@H](O)[C@@H](O)[C@H](O[C@H]4[C@H](O)[C@@H](O)C(O)O[C@@H]4CO)O[C@@H]3CO)O[C@@H]2CO)[C@H](O)[C@@H](O)[C@@H]1O (stereo partly drawn) [cellotetraose],Vmax,[1],16 μmol.min^-1.mg^-1 protein
same,Km,[1],35 mM
O=[N+]([O-])c1ccc(O[C@@H]2OC[C@@H](O)[C@H](O)[C@H]2O)cc1 [p-nitrophenyl-β-D-xyloside],"relative rate of hydrolysis, of that of pNPβG",[1]; purified enzyme,< 5%
OC[C@H]1O[C@@H](O[C@H]2[C@H](O)[C@@H](O)[C@H](O[C@H]3[C@H](O)[C@@H](O)[C@H](O[C@H]4[C@H](O)[C@@H](O)[C@H](O[C@H]5[C@H](O)[C@@H](O)[C@H](O[C@H]6[C@H](O)[C@@H](O)C(O)O[C@@H]6CO)O[C@@H]5CO)O[C@@H]4CO)O[C@@H]3CO)O[C@@H]2CO)[C@H](O)[C@@H](O)[C@@H]1O (stereo partly drawn) [cellohexaose],Vmax,[1],5 μmol.min^-1.mg^-1 protein
same,Km,[1],18 mM
O=C[C@H](O)[C@@H](O)[C@@H](O)CO [L-Arabinose],Growth (A660),Candida peltata Y-21603; carbon source 1% w/v,9.4
[Mg+2] [Mg^2+],dependence of enzyme activity on metal ion,[3]; 5 mM,not dependent
[Mn+2] [Mn^2+],dependence of enzyme activity on metal ion,[3]; 5 mM,not dependent
OC[C@H]1OC(O)[C@@H](O)[C@@H](O)[C@@H]1O (stereo partly drawn) [mannose],inhibition of β-glucosidase activity,[3]; sugar at 56 mM,did not inhibit
arabinose,inhibition of β-glucosidase activity,[3]; sugar at 56 mM,did not inhibit
OC[C@H]1OC(O)[C@H](O)[C@@H](O)[C@H]1O (stereo partly drawn) [Galactose],inhibition of β-glucosidase activity,[3]; sugar at 56 mM,did not inhibit

# Reference: US5747320A (The United States of America, as represented by the …, priority 1996, dated 1998)
